What was measured:
[1] = target: T1, HIV-1 Integrase (Human immunodeficiency virus type 1 group M subtype B, UniProt P04585); experiment: HIV-1 integrase 3′-processing inhibition; format: biochemical
[2] = target: T1, HIV-1 Integrase; experiment: HIV-1 integrase strand transfer inhibition; format: biochemical

SMILES | IC50 [1] | IC50 [2] | Strand Transfer IC50 ([2]; in vitro, strand transfer step)
COc1ccc(/C=C2\C(=O)N(c3cccc(C)c3)N=C2C(F)(F)F)cc1OCc1ccc(F)cc1 [Compound 5b] | > 100 µM | > 100 µM | –
COc1ccc(/C=C2\C(=O)N(c3cccc(I)c3)N=C2C(F)(F)F)cc1OCc1ccc(F)cc1 [Compound 5i] | > 100 µM | – | –
O=C(O)C1=NN(c2cccc([N+](=O)[O-])c2)C(=O)/C1=C\c1ccc(OCc2ccc(F)cc2)c(O)c1 [Compound 14d] | – | – | single-digit micromolar
COc1ccc(/C=C2\C(=O)N(c3ccc(I)cc3)N=C2C(F)(F)F)cc1OCc1ccc(F)cc1 [Compound 56l] | > 100 µM | – | –
COc1ccc(/C=C2\C(=O)N(c3cccc(Br)c3)N=C2C)cc1OCc1ccc(F)cc1 [Compound 6a] | > 100 µM | > 100 µM | –
CCC(=O)OC1=NN(c2cccc(Br)c2)C(=O)/C1=C\c1ccc(OC)c(OCc2ccc(F)cc2)c1 [Compound 6g] | > 100 µM | – | –
O=C1/C(=C\c2ccc(O)c(OCc3ccc(F)cc3)c2)C(C(F)(F)F)=NN1c1cccc(Br)c1 [Compound 4f] | > 100 µM | – | –
COc1ccc(/C=C2\C(=O)N(c3cccc(Br)c3)N=C2C(F)(F)F)c(OC)c1OC [Compound 4b] | > 100 µM | > 100 µM | –
COc1ccc(/C=C2\C(=O)N(c3ccc(C(=O)O)cc3)N=C2C(F)(F)F)cc1OCc1ccc(F)cc1 [Compound 5m] | > 100 µM | – | –
COc1ccc(/C=C2\C(=O)N(c3nc4ccccc4s3)N=C2C(F)(F)F)cc1OCc1ccc(F)cc1 [Compound 5o] | > 100 µM | – | –
COc1ccc(/C=C2\C(=O)N(c3cccc(Br)c3)N=C2COC(C)=O)cc1OCc1ccc(F)cc1 [Compound 6f] | > 100 µM | – | –
CCC1=NN(c2cccc(Br)c2)C(=O)/C1=C\c1ccc(OC)c(OCc2ccc(F)cc2)c1 [Compound 6b] | > 100 µM | > 100 µM | –
COc1ccc(/C=C2\C(=O)N(c3cccc(Br)c3)N=C2OC(C)=O)cc1OCc1ccc(F)cc1 [Compound 6e] | > 100 µM | – | –
COc1ccc(/C=C2\C(=O)N(c3cccc(-c4ccccc4)c3)N=C2C(F)(F)F)cc1OCc1ccc(F)cc1 [Compound 5d] | > 100 µM | – | –
COc1ccc(/C=C2\C(=O)N(c3ccccc3)N=C2C(F)(F)F)cc1OCc1ccc(F)cc1 [Compound 5a] | > 100 µM | > 100 µM | –
COc1ccc(/C=C2\C(=O)N(c3cc(Cl)cc(Cl)c3)N=C2C(F)(F)F)cc1OCc1ccc(F)cc1 [Compound 5j] | > 100 µM | – | –
COc1ccc(/C=C2\C(=O)N(c3ccc(NS(C)(=O)=O)cc3)N=C2C(F)(F)F)cc1OCc1ccc(F)cc1 [Compound 5n] | > 100 µM | > 100 µM | –
COc1ccc(/C=C2\C(=O)N(c3cccc(Br)c3)N=C2NC(=O)C(F)(F)F)cc1OCc1ccc(F)cc1 [Compound 6d] | > 100 µM | > 100 µM | –
COc1ccc(/C=C2\C(=O)N(c3cccc(F)c3)N=C2C(F)(F)F)cc1OCc1ccc(F)cc1 [Compound 5f] | > 100 µM | – | –

Reference: publication PMC2957562 (Bioorganic & medicinal chemistry letters, 2010)
